pIC50: −log10 of the molar value.
Assays:
MLK1 = target: T1, MLK1 (Homo sapiens, UniProt P80192); experiment: In vitro kinase inhibition, Ambit Biosciences panel; format: binding; conditions: lower numbers indicate stronger activities
T1 construct: purchased Ambit Biosciences
Description: (§1) Up to 518 different kinases have been identified in humans. They act on small molecules such as lipids, carbohydrates, amino acids, and nucleotides. To determine the scope of inhibitory effects of a representative compound of Formula (I) on known kinases, Compound 6 was tested against 104 commercially available kinases (Ambit Biosciences™) in vitro. 104 kinases included ABL1(E255K)-phosphorylated, ABL1(T315I)-phosphorylated, ABL1-phosphorylated, ACVR1B, ADCK3, AKT1, AKT2, ALK, AURKA, AURKB, AXL, BMPR2, BRAF, BRAF(V600E), BTK, CDK11, CDK2, CDK3, CDK7, CDK9, CHEK1, CSF1R, CSNK1D, CSNK1G2, DCAMKL1, DYRK1B, EGFR, EGFR(L858R), EPHA2, ERBB2, ERBB4, ERK1, FAK, FGFR2, FGFR3, FLT1, FLT3, FLT4, GSK3B, IGF1R, IKK-α, IKK-β, INSR, JAK2(JH1domain-catalytic), JAK3(JH1domain-catalytic), JNK1, JNK2, JNK3, KIT, KIT(D816V), KIT(V559D,T670I), LKB1, LRRK2, LRRK2(G2019S), MAP3K4, MAPKAPK2, MARK3, MEK1, MEK2, MET, MKNK1, MKNK2, MLK1, MTOR, p38-alpha, p38-beta, PAK1, PAK2, PAK4, PCTK1, PDGFRA, PDGFRB, PDPK1, PIK3C2B, PIK3CA, PIK3CG, PIM1, PIM2, PIM3, PKAC-alpha, PLK1, PLK3, PLK4, PRKCE, PYK2, RAFT, RET, RIOK2, ROCK2, RSK2, SNARK, SRC, SRPK3, SYK, TAK1, TGFBR1, TIE2, TRKA, TSSK1B, TYK2(JH1domain-catalytic), ULK2, VEGFR2, YANK3 and ZAP70.
(§2) Inhibition activity of Compound 6 was reported as percent control where lower numbers indicate stronger activities. […] Conventionally, the percent control of less than 35 is deemed to be significant inhibition of kinase activity as the numeric value 35 is frequently used as a threshold.

PLK4 = target: T2, PLK4 (Homo sapiens, UniProt O00444); experiment: as above; format: binding; conditions: lower numbers indicate stronger activities
T2 construct: purchased Ambit Biosciences
T2 sequence (O00444 whole entry): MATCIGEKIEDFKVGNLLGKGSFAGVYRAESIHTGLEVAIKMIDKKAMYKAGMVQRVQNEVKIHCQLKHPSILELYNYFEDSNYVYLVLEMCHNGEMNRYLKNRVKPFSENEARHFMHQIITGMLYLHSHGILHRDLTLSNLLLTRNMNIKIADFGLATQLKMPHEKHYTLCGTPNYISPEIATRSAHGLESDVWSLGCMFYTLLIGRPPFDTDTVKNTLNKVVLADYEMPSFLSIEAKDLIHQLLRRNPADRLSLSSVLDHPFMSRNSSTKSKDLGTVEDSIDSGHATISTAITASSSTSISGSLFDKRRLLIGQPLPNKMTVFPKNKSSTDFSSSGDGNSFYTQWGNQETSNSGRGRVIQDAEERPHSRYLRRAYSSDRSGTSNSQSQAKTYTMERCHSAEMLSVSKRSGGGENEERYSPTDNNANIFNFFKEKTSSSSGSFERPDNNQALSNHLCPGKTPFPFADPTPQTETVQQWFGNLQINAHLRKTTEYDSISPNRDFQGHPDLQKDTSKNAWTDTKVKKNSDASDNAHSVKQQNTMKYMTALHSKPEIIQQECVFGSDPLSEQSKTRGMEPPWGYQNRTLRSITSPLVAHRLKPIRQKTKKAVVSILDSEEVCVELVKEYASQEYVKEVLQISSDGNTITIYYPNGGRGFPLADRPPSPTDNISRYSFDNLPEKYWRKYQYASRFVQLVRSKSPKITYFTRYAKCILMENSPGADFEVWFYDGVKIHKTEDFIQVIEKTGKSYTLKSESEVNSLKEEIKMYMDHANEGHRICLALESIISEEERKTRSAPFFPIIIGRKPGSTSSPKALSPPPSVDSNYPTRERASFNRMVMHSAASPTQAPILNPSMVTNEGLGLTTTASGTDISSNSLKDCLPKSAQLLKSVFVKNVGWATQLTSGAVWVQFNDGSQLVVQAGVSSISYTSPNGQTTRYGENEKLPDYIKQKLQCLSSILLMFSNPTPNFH
Description: as §1, §2

LRRK2(G2019S) = target: T3, LRRK2(G2019S) (Homo sapiens, UniProt Q5S007, G2019S); experiment: as above; format: binding; conditions: lower numbers indicate stronger activities
T3 construct: purchased Ambit Biosciences
Description: as §1, §2

JNK1 = target: T4, JNK1 (Homo sapiens, UniProt P45983); experiment: as above; format: binding; conditions: lower numbers indicate stronger activities
T4 construct: purchased Ambit Biosciences
Description: as §1, §2

CSF1R = target: T5, CSF1R (Homo sapiens, UniProt P07333); experiment: as above; format: binding; conditions: lower numbers indicate stronger activities
T5 construct: purchased Ambit Biosciences
Description: as §1, §2

RET = target: T6, RET (Homo sapiens, UniProt P07949); experiment: as above; format: binding; conditions: lower numbers indicate stronger activities
T6 construct: purchased Ambit Biosciences
Description: as §1, §2

AXL = target: T7, AXL (Homo sapiens, UniProt P30530); experiment: as above; format: binding; conditions: lower numbers indicate stronger activities
T7 construct: purchased Ambit Biosciences
Description: as §1, §2

TAK1 = target: T8, TAK1 (Homo sapiens, UniProt O43318); experiment: as above; format: binding; conditions: lower numbers indicate stronger activities
T8 construct: purchased Ambit Biosciences
Description: as §1, §2

SNARK = target: T9, SNARK (Homo sapiens, UniProt Q9H093); experiment: as above; format: binding; conditions: lower numbers indicate stronger activities
T9 construct: purchased Ambit Biosciences
T9 sequence (Q9H093 whole entry): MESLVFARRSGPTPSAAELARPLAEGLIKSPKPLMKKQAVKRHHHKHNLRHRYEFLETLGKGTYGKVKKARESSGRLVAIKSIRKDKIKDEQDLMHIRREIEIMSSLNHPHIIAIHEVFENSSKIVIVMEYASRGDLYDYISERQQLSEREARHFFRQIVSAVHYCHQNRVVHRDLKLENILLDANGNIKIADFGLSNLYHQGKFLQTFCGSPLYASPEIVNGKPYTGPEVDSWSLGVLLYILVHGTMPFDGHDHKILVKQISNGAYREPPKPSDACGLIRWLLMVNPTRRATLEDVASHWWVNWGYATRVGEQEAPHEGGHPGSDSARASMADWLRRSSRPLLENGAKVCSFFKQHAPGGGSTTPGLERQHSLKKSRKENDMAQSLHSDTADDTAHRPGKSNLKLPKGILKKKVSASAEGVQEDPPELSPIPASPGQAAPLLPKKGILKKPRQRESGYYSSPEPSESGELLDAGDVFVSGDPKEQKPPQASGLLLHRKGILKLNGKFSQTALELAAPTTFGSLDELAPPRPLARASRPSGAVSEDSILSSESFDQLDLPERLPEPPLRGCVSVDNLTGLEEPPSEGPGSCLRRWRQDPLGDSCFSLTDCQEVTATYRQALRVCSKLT
Description: as §1, §2

PDGFRB = target: T10, PDGFRB (Homo sapiens, UniProt P09619); experiment: as above; format: binding; conditions: lower numbers indicate stronger activities
T10 construct: purchased Ambit Biosciences
Description: as §1, §2

BMPR2 = target: T11, BMPR2 (Homo sapiens, UniProt Q13873); experiment: as above; format: binding; conditions: lower numbers indicate stronger activities
T11 construct: purchased Ambit Biosciences
Description: as §1, §2

JAK3 = target: T12, JAK3 (Homo sapiens, UniProt P52333); experiment: as above; format: binding; conditions: lower numbers indicate stronger activities
T12 construct: JAK2(JH1domain-catalytic), JAK3(JH1domain-catalytic); purchased Ambit Biosciences
T12 sequence (P52333 822-1111 limits assumed): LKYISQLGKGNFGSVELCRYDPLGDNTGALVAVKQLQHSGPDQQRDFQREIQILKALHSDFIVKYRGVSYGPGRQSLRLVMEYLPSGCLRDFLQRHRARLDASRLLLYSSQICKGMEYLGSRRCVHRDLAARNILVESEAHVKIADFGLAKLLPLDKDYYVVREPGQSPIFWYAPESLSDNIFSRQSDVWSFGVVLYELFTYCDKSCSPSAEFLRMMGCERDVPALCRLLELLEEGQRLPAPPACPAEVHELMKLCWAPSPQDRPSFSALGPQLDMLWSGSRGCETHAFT
Description: as §1, §2

FLT3 = target: T13, FLT3 (Homo sapiens, UniProt P36888); experiment: as above; format: binding; conditions: lower numbers indicate stronger activities
T13 construct: purchased Ambit Biosciences
T13 sequence (P36888 27-993): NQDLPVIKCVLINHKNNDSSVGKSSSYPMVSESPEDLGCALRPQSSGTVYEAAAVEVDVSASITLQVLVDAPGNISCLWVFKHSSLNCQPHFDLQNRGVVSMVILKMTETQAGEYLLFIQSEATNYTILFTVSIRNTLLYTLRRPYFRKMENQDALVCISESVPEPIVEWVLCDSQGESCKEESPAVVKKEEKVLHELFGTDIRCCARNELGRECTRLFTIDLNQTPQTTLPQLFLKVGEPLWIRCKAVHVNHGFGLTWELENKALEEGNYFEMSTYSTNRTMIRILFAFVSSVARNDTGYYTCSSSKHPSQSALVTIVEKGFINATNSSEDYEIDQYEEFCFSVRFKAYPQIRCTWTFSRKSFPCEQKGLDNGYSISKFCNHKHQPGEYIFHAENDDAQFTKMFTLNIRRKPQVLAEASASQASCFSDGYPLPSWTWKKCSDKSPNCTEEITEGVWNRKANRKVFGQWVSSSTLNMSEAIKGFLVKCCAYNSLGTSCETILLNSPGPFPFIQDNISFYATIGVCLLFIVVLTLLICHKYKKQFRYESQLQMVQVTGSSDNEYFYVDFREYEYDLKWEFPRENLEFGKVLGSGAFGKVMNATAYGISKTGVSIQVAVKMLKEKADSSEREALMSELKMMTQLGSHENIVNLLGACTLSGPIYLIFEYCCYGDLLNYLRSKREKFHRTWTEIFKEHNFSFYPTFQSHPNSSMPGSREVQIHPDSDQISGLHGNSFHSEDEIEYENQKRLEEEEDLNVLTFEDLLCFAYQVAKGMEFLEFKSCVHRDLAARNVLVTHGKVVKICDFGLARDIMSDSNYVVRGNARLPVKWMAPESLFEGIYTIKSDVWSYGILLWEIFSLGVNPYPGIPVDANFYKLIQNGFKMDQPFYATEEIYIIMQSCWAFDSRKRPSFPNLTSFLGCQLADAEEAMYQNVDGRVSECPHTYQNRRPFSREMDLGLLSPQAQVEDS
Description: as §1, §2

FAK = target: T14, FAK (Homo sapiens, UniProt Q05397); experiment: as above; format: binding; conditions: lower numbers indicate stronger activities
T14 construct: purchased Ambit Biosciences
Description: as §1, §2

LKB1 = target: T15, LKB1 (Homo sapiens, UniProt Q15831); experiment: as above; format: binding; conditions: lower numbers indicate stronger activities
T15 construct: purchased Ambit Biosciences
Description: as §1, §2

TYK2 = target: T16, TYK2 (Homo sapiens, UniProt P29597); experiment: as above; format: binding; conditions: lower numbers indicate stronger activities
T16 construct: TYK2(JH1domain-catalytic); purchased Ambit Biosciences
T16 sequence (P29597 897-1176 limits assumed): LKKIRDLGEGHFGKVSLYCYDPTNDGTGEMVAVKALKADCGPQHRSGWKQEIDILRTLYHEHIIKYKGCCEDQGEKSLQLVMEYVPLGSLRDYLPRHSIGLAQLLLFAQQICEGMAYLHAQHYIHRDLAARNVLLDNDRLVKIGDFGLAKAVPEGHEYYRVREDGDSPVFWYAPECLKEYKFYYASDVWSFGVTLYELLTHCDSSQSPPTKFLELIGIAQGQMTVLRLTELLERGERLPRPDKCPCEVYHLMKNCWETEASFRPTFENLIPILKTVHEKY
Description: as §1, §2

KIT = target: T17, KIT (Homo sapiens, UniProt P10721); experiment: as above; format: binding; conditions: lower numbers indicate stronger activities
T17 construct: purchased Ambit Biosciences
Description: as §1, §2

JNK2 = target: T18, JNK2 (Homo sapiens, UniProt P45984); experiment: as above; format: binding; conditions: lower numbers indicate stronger activities
T18 construct: purchased Ambit Biosciences
T18 sequence (P45984 whole entry): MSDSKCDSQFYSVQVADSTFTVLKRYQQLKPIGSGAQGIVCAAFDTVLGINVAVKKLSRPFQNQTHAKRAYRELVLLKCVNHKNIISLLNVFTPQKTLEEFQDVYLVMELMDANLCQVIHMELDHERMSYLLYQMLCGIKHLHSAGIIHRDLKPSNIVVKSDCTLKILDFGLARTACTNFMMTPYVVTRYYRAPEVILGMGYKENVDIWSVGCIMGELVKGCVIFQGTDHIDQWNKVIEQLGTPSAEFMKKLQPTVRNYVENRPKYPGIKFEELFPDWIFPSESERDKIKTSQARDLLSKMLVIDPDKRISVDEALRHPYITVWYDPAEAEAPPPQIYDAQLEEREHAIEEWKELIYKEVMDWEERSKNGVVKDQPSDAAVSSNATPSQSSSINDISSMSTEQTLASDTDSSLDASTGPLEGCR
Description: as §1, §2

PAK4 = target: T19, PAK4 (Homo sapiens, UniProt O96013); experiment: as above; format: binding; conditions: lower numbers indicate stronger activities
T19 construct: purchased Ambit Biosciences
T19 sequence (O96013 whole entry): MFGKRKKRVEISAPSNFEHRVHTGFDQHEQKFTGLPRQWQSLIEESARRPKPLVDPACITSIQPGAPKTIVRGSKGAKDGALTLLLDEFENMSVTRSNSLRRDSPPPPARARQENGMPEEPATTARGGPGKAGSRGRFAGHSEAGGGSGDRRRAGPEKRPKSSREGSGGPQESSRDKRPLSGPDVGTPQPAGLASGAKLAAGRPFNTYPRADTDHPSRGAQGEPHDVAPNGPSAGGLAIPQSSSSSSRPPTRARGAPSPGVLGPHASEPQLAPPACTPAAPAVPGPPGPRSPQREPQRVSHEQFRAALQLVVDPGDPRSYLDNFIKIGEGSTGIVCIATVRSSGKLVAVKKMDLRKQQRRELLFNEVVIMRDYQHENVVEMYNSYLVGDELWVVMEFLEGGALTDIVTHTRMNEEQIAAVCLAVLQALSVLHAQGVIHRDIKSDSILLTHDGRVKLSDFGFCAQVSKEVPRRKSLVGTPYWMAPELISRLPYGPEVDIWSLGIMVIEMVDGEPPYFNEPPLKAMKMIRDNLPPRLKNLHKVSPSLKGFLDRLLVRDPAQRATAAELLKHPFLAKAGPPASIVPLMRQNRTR
Description: as §1, §2

KIT(D816V) = target: T20, KIT(D816V) (Homo sapiens, UniProt P10721, D816V); experiment: as above; format: binding; conditions: lower numbers indicate stronger activities
T20 construct: purchased Ambit Biosciences
Description: as §1, §2

JNK3 = target: T21, JNK3 (Homo sapiens, UniProt P53779); experiment: as above; format: binding; conditions: lower numbers indicate stronger activities
T21 construct: purchased Ambit Biosciences
Description: as §1, §2

ALK = target: T22, ALK (Homo sapiens, UniProt Q9UM73); experiment: as above; format: binding; conditions: lower numbers indicate stronger activities
T22 construct: purchased Ambit Biosciences
Description: as §1, §2

LRRK2 = target: T23, LRRK2 (Homo sapiens, UniProt Q5S007); experiment: as above; format: binding; conditions: lower numbers indicate stronger activities
T23 construct: purchased Ambit Biosciences
Description: as §1, §2

JAK2 = target: T24, JAK2 (Homo sapiens, UniProt O60674); experiment: as above; format: binding; conditions: lower numbers indicate stronger activities
T24 construct: JAK2(JH1domain-catalytic), JAK3(JH1domain-catalytic); purchased Ambit Biosciences
Description: as §1, §2

RSK2 = target: T25, RSK2 (Homo sapiens, UniProt P51812); experiment: as above; format: binding; conditions: lower numbers indicate stronger activities
T25 construct: RSK2 (Kin.Dom.1-N-terminal); purchased Ambit Biosciences
T25 sequence (P51812 68-327 limits assumed): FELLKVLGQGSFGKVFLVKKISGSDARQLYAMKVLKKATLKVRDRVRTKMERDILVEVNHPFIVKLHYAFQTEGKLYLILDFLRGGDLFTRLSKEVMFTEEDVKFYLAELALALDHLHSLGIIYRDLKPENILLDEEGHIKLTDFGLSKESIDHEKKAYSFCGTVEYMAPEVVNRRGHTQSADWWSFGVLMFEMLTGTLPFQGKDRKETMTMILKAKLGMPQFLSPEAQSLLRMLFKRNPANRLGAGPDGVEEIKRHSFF
Description: as §1, §2

AURKA = target: T26, AURKA (Homo sapiens, UniProt O14965); experiment: as above; format: binding; conditions: lower numbers indicate stronger activities
T26 construct: purchased Ambit Biosciences
Description: as §1, §2

SRPK3 = target: T27, SRPK3 (Homo sapiens, UniProt Q9UPE1); experiment: as above; format: binding; conditions: lower numbers indicate stronger activities
T27 construct: purchased Ambit Biosciences
T27 sequence (Q9UPE1 whole entry): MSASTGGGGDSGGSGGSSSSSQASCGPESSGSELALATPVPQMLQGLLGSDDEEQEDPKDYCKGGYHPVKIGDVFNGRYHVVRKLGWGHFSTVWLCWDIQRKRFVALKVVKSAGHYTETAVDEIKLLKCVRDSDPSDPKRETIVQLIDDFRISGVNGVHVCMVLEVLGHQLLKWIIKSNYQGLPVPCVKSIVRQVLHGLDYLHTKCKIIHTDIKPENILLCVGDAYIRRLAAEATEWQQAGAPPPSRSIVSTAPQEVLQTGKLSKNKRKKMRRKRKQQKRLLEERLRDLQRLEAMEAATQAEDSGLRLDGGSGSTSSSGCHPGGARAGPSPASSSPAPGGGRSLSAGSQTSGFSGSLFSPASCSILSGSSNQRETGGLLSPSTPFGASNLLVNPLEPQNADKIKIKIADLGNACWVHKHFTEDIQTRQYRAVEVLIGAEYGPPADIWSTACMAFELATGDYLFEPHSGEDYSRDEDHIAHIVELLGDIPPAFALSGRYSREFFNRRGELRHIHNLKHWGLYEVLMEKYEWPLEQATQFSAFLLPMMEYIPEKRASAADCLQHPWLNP
Description: as §1, §2

HCT-116 = experiment: cells; format: cell-based; conditions: HCT-116 (Colon Cancer)

## O=c1[nH]ccc2nc(N3CCC(O)CC3)nc(Nc3cccc(C(F)(F)F)c3)c12 [Compound 6, 2-(4-hydroxypiperidin-1-yl)-4-(3-(trifluoromethyl)phenylamino)pyrido[4,3-d]pyrimidine-5(6H)-one]
MLK1
  % inhibition (reported as percent control): 2.8%
PLK4
  % inhibition (reported as percent control): 13%
LRRK2(G2019S)
  % inhibition (reported as percent control): 2.2%
JNK1
  % inhibition (reported as percent control): 4.8%
CSF1R
  % inhibition (reported as percent control): 5.2%
RET
  % inhibition (reported as percent control): 16%
AXL
  % inhibition (reported as percent control): 11%
TAK1
  % inhibition (reported as percent control): 1%
SNARK
  % inhibition (reported as percent control): 3.6%
PDGFRB
  % inhibition (reported as percent control): 19%
BMPR2
  % inhibition (reported as percent control): 0%
JAK3
  % inhibition (reported as percent control): 4.4%
FLT3
  % inhibition (reported as percent control): 28%
FAK
  % inhibition (reported as percent control): 34%
LKB1
  % inhibition (reported as percent control): 18%
TYK2
  % inhibition (reported as percent control): 16%
KIT
  % inhibition (reported as percent control): 11%
JNK2
  % inhibition (reported as percent control): 25%
PAK4
  % inhibition (reported as percent control): 21%
KIT(D816V)
  % inhibition (reported as percent control): 9.3%
JNK3
  % inhibition (reported as percent control): 7%
ALK
  Percent of control (lower = stronger binding): 29%
LRRK2
  % inhibition (reported as percent control): 2.2%
JAK2
  % inhibition (reported as percent control): 3%
RSK2
  % inhibition (reported as percent control): 18%
AURKA
  % inhibition (reported as percent control): 31%
SRPK3
  % inhibition (reported as percent control): 2.6%
HCT-116
  TGI: 12300 nM
HCT-116; Homo sapiens
  GI50: 871 nM
  pIC50: 5.88
HCT-116; Homo sapiens, read-out: LC50 (the source's name)
  CC50: 75900 nM
